Assay results from patent US6248747A, “5-(heterocyclic alkyl)-6-aryl-dihydropyrimidines” (Synaptic Pharmaceutical Corporation, priority 1999, dated 2001).
Where two headings read alike, the source gives them in different places.

Key:
[1] = molecular target: T1, cloned human α1c receptor (Homo sapiens, UniProt P35348); assay: Radioligand binding affinity at cloned human α1c receptor ([3H]prazosin); conditions: LM(tk-) cell membranes, SEM and n
T1 construct: The entire coding region of α1C (1401 bp); expressed in transfected cells; host or cells: LM(tk-) cells, membranes; vector EXJ.RH (derived from pCEXV-3)
T1 sequence (P35348 1-466): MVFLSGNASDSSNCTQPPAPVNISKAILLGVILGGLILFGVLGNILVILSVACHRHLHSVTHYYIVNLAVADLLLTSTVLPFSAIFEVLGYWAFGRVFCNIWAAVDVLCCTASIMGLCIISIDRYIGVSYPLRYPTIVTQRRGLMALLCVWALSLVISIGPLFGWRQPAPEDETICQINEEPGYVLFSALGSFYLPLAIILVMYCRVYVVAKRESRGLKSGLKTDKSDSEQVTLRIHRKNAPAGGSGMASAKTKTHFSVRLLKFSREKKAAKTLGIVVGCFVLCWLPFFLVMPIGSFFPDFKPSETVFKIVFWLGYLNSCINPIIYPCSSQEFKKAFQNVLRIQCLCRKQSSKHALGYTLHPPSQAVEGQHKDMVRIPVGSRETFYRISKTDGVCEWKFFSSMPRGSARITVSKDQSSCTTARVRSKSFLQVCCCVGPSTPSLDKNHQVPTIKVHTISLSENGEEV
Protocol: (§1) The protocols for these experiments are given below.
(§2) These cell lines were prepared by transfecting the cloned cDNA or cloned genomic DNA or constructs containing both genomic DNA and cDNA encoding the human α-adrenergic receptors as follows:
The construct involved ligating three partial overlapping fragments: a 5' 0.6 kb HincII genomic clone, a central 1.8 EcoRI hippocampal cDNA clone, and a 3' 0.6 Kb PstI genomic clone. The hippocampal cDNA fragment overlaps with the 5' and 3' genomic clones so that the HincII and PstI sites at the 5' and 3' ends of the cDNA clone, respectively, were utilized for ligation. This full-length clone was cloned into the KpnI site of the expression vector, using the 5' and 3' KpnI sites of the fragment, derived from vector (i.e., pBluescript) and 3'-untranslated sequences, respectively. Stable cell lines were selected as described above.
Radioligand Binding Assays: Transfected cells from culture flasks were scraped into 5 ml of 5 mM Tris-HCl, 5 mM EDTA, pH 7.5, and lysed by sonication. The cell lysates were centrifuged at 1000 rpm for 5 min at 4° C., and the supernatant was centrifuged at 30,000×g for 20 min at 4° C. The pellet was suspended in 50 mM Tris-HCl, 1 mM MgCl2, and 0.1% ascorbic acid at pH 7.5. […] Nonspecific binding was determined in the presence of 10 μM phentolamine. […]

[2] = molecular target: T2, cloned human α1b receptor (Homo sapiens, UniProt P35368); assay: Radioligand binding affinity at cloned human α1b receptor ([3H]prazosin); conditions: LM(tk-) cell membranes, SEM and n
T2 construct: The entire coding region of α1B (1563 bp); expressed in transfected cells; host or cells: LM(tk-) cells, membranes; vector pCEXV-3
T2 sequence (P35368 1-520): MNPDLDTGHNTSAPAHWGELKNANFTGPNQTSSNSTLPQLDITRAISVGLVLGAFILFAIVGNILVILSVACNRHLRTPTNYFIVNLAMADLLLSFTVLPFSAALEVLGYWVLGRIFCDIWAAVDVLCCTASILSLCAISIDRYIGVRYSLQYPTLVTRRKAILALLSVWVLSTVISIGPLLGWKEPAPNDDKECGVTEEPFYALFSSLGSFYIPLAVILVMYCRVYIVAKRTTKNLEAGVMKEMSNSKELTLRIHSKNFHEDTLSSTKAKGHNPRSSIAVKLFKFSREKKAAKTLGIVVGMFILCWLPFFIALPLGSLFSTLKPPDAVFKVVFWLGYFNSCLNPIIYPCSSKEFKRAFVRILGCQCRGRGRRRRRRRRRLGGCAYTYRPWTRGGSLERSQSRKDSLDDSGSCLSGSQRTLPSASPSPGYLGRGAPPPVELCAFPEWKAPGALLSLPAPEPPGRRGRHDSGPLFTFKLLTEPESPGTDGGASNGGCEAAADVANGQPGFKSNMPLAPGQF
Protocol: as §1, §2
The construct involved ligating the full-length containing EcoRI brainstem cDNA fragment from λ ZapII into the expression vector. Stable cell lines were selected as described above.
(§3) Radioligand Binding Assays: Transfected cells from culture flasks were scraped into 5 ml of 5 mM Tris-HCl, 5 mM EDTA, pH 7.5, and lysed by sonication. The cell lysates were centrifuged at 1000 rpm for 5 min at 4° C., and the supernatant was centrifuged at 30,000×g for 20 min at 4° C. The pellet was suspended in 50 mM Tris-HCl, 1 mM MgCl2, and 0.1% ascorbic acid at pH 7.5. […] Nonspecific binding was determined in the presence of 10 μM phentolamine. The reaction was stopped by filtration through GF/B filters using a cell harvester.

[3] = molecular target: T3, cloned human α1a receptor (Homo sapiens, UniProt P25100); assay: Radioligand binding affinity at cloned human α1a receptor ([3H]prazosin); conditions: LM(tk-) cell membranes, SEM and n
T3 construct: The entire coding region of α1A (1719 bp); expressed in transfected cells; host or cells: LM(tk-) cells, membranes
T3 sequence (P25100 1-572): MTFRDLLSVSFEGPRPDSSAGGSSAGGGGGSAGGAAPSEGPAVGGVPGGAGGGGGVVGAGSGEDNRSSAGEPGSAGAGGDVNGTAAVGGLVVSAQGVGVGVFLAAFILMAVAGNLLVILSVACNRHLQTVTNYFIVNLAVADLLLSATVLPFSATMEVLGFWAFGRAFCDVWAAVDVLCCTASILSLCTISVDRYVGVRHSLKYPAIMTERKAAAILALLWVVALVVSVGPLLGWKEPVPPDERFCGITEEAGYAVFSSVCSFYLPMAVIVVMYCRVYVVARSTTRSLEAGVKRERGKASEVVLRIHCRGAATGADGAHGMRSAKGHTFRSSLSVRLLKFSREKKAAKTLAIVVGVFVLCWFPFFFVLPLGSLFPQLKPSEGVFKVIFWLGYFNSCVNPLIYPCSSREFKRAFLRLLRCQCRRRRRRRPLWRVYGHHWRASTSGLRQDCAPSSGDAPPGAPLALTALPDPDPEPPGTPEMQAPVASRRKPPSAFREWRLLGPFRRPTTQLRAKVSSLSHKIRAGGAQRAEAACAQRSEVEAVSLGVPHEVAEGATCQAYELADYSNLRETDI
Protocol: as §1, §2, §3

[4] = cited from earlier work
[5] = tested on: benign prostatic hyperplasia (BPH); conditions: literature report (phenoxybenzamine: M. Caine et al. 1976); cited from earlier work

Row | SMILES | side effects ([4]; background statement) | usefulness in treating BPH [5] | other results
1 | CCC1=C(C(N)=O)C(c2ccc(F)c(F)c2)N(C(=O)NCCCN2CCC(C(=O)OC)(c3ccccc3)CC2)C(=O)N1 (single isomer, unassigned; (+)) [Example 20, (+)-5-Carboxamido-6-(3,4-difluorophenyl)-4-ethyl-1-{N-[3-(4-methoxycarbonyl-4-phenylpiperidin-1-yl)propyl]}carboxamido-2-oxo-1,2,3,6-tetrhydropyrimidine] | – | – | hα1c pKi [1]: 9.68; hα1b pKi [2]: 6.59; hα1a pKi [3]: 6.46
2 | Clc1cccc(Cl)c1N=C1NCCN1 [clonidine] | dry mouth and sedation | – | –
3 | CC(COc1ccccc1)N(CCCl)Cc1ccccc1 (stereo not shown) [phenoxybenzamine] | significant side effects such as dizziness and asthenia | useful in relieving the symptoms of BPH | –
4 | COc1cc2nc(N3CCN(C(=O)c4ccco4)CC3)nc(N)c2cc1OC [prazosin] | – | useful for treating BPH | side effects ([4]; in vivo): untoward side effects
5 | COc1cc2nc(N3CCN(C(=O)C4CCCO4)CC3)nc(N)c2cc1OC (stereo not shown) [terazosin] | untoward side effects | useful for treating BPH | –
